From patent publication US20240124594A1, “TREATMENT OF CVD AND SYSTEMIC SCEROSIS WITH BETA-1 ADRENERGIC RECEPTOR ANTIBODIES” (The Cleveland Clinic Foundation, priority 2021, published 2024) come the findings set out here.

Assay [1] concerns the target T1, human cardiac β1AR (Homo sapiens, UniProt P08588).
T1 construct: non-failing human hearts were used as an endogenous system; tissue Cleveland Clinic's Tissue Bank; host or cells: non-failing donor human heart, plasma membrane fraction
Description: AC activity in cardiac plasma membranes from non-failing donor human hearts. Conditions: agent alone, absence of IgG3 autoantibodies. Type of assay: biochemical. As for the experimental part:
(§1) Briefly the treated cells were scraped using osmotic lysis buffer (5 mM Tris-HCl, pH 7.4; 5 mM EDTA; 1 mM PMSF; 2 μg/mL Leupeptin and 1 μg/mL Aprotinin) and homogenized by douncing. Cardiac tissue samples from non-failing human hearts were homogenized in osmotic lysis buffer using Polytron® homogenizer. This was followed by toggling the samples for 10 mins. The intact cells and nuclei were removed by centrifuging these samples at 2500 rpm for 5 mins. The collected supernatant was centrifuged at 17500 rpm for 30 minutes to obtain the plasma membrane as pellet. All the above steps were performed at 4° C.

Assay [2] addresses T2, human β1AR (Homo sapiens, UniProt P08588). Description: phospho-ERK immunoblotting in β1AR-HEK 293 cells. Conditions: agent alone.
Assay [3] deals with T2, human β1AR. Description: cAMP generation in β1AR-HEK 293 cells (Catchpoint cAMP kit). Conditions: agent alone, 10 μM for 10 min, serum starved cells, vs control.
Description: cAMP generation assay was performed using whole cell lysates. The assay was done using the standard manufacturer's protocol.
Assay [4] concerns the target T2, human β1AR. Put plainly: Adenylyl cyclase (AC) assay on plasma membranes of HEK-β1AR cells (G-protein coupling). Type of assay: biochemical. Conditions: agent alone, isolated plasma membranes. Set-up: FLAG; expressed in transfected cells; pcDNA3.1(-) plasmid, a gift from Dr. Yang K. Xiang. As for the experimental part: as §1

T2 sequence (P08588 whole entry): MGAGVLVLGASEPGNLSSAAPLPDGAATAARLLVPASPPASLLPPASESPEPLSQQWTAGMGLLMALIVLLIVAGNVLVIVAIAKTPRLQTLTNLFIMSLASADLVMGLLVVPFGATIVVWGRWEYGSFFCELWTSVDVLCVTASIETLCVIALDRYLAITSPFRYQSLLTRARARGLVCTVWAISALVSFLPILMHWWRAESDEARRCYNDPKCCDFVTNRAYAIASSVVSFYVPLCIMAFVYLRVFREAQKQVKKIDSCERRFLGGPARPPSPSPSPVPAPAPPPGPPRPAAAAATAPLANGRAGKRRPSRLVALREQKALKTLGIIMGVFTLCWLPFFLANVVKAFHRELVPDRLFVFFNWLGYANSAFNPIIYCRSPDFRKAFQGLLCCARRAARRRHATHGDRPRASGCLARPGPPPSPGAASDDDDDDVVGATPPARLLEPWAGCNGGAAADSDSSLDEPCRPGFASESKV
T1 sequence (P08588 whole entry): as above

As for `CC(CCc1ccc(O)cc1)NCCc1ccc(O)c(O)c1` (stereo not shown) [Dob, dobutamine], the AC activity result in assay [1] is reported as “activating AC activity”; in assay [4], “significantly increased AC activity”. For the same compound, the ERK phosphorylation result in assay [2] is reported as “significantly increased”. Further, the cAMP generation result in assay [3] was “significantly increased”.
